From patent publication US20260198495A1, “BINARY INSECTICIDE COMPOSITION AND USE THEREOF” (SHENYANG SINOCHEM AGROCHEMICALS R & D CO., LTD., priority 2022, published 2026) come the findings set out here.

Holding throughout (assay type): in vivo
In assay [1] the test system is 3rd-instar larvae of Spodoptera exigua Hübner. Nature of the assay: Joint toxicity (LC50, CTC) of I-72 + indoxacarb, leaf-disk dipping, Example 1, Table 1. To be noted: Spodoptera exigua, cabbage leaf-disk dipping, 72 h, A = compound I-72, B = indoxacarb, read-out: LC50. The protocol:
Test subject: 3rd-instar larvae of Spodoptera exigua Hübner, a sensitive strain reared indoors.
Test conditions: temperature: 24-26° C., humidity: RH 60%, and illumination: L:D=14:10.
Preparation method: the test pesticides were accurately weighed respectively with an electronic analytical balance. After the two technical materials were respectively added into an appropriate amount of solvent and completely dissolved, the stock solution of the required concentration was prepared with water containing 0.1% Tween 80. The stock solutions of the two active ingredients were mixed in a certain ratio to prepare a mixed solution, which was then diluted respectively into a series of pesticide solutions with a certain concentration gradient according to the experimental design dosage.
Experimental method: the dipping method was adopted. […]
The co-toxicity coefficient (CTC value) of the mixture was calculated according to the following formula:
[formula] • in the formula: ATI-measured toxicity index of the mixture; S-LC50 of the standard pesticide; and M-LC50 of the mixture. […]
[formula] • in the formula: CTC-co-toxicity coefficient; ATI-measured toxicity index of the mixture; and TTI-theoretical toxicity index of the mixture. • CTC-co-toxicity coefficient • ATI-measured toxicity index of the mixture • TTI-theoretical toxicity index of the mixture

Assay [2] relates to 3rd-instar larvae of Ostrinia furnacalis Guenee. The experiment in a line: Joint toxicity of I-72 + lambda-cyhalothrin, Example 42, Table 42. Particulars: A = compound I-72, B = lambda-cyhalothrin, corn stem dipping, 72 hours, read-out: LC50. The protocol: (§1) Test target: 3rd-instar larvae of Ostrinia furnacalis Guenee.
(§2) Preparation of the pesticide solution: according to different test requirements, the test samples were accurately weighed respectively with an electronic analytical balance. The technical pesticides were dissolved in acetone, and then diluted with 0.1% Tween 80 water into a series of pesticide solutions with a certain concentration gradient according to the experimental design dosage.
Experimental method: first, tender corn stems were selected and dipped in the prepared pesticide solution for 10 s in the order from low dosage to high dosage according to the experimental design. After natural air-drying in the shade, they were placed in a 9-cm-diameter Petri dish with filter paper, and uniform and healthy test insects were introduced, with 10 insects for each treatment and 3 replicates for each treatment. In addition, a blank control was set up.
The treated test materials were placed in an observation room, and the temperature, humidity and illumination of the observation room could be adjusted as needed. The number of dead and live insects was investigated 72 hours later. […] Then, the co-toxicity coefficient of each ratio was calculated using the Sun Y-P method to evaluate the mixing effect (the same as in Example 1).

The test system is the same in assay [3]. The experiment in a line: Synergism screening (Bliss) of I-72 + ecdysteroid and juvenile hormone insecticides, Example 51, Table 51. Particulars: Ostrinia furnacalis; single pesticide, 2 mg/L; 72 hours; read-out: Measured mortality rate. The method, then: as §1, §2
Experimental method: first, tender corn stems were selected and dipped in the prepared pesticide solution for 10 s in the order from low dosage to high dosage according to the experimental design. After natural air-drying in the shade, they were placed in a 9-cm-diameter Petri dish with filter paper, and uniform and healthy test insects were introduced, with 10 insects for each treatment and 3 replicates for each treatment. In addition, a blank control (CK) was set up.
The treated test materials were placed in an observation room, and the temperature, humidity and illumination of the observation room could be adjusted as needed. The number of dead and alive insects was investigated 72 hours later, and the corrected mortality rate was calculated using the Abbott's formula.
The synergism of the mixture was evaluated by adopting the Bliss method, as in Example 5.

The test system of assay [4] is 3rd-instar larvae of Chilo suppressalis (Walker). The experiment in a line: Joint toxicity of I-72 + chlorantraniliprole, Example 57, Table 57. To be noted: A = compound I-72, B = chlorantraniliprole, rice stem dipping, 72 hours, read-out: LC50. The protocol: Test target: 3rd-instar larvae of Chilo suppressalis (Walker).
as §2
Experimental method: first, tender rice stems were selected and dipped in the prepared pesticide solution for 10 s in the order from low dosage to high dosage according to the experimental design. After natural air-drying in the shade, they were placed in a 9-cm-diameter Petri dish with filter paper, and uniform and healthy test insects were introduced, with 10 insects for each treatment and 3 replicates for each treatment. In addition, a blank control (CK) was set up.
The treated test materials were placed in an observation room, and the temperature, humidity and illumination of the observation room could be adjusted as needed. The number of dead and live insects was investigated 72 hours later. […] Then, the co-toxicity coefficient of each ratio was calculated using the Sun Y-P method to evaluate the mixing effect, as in Example 1.

Assay [5] has as its system adult Tetranychus cinnabarinus (Boisduval). Nature of the assay: Joint toxicity of I-72 + pyridaben, Example 84, Table 84. To be noted: A = compound I72, B = pyridaben, potted-seedling spraying, 72 hours, read-out: LC50. The method, then:
Test target: adult Tetranychus cinnabarinus (Boisduval), a sensitive strain reared indoors.
as §2
Experimental method: the activity of the mixture against the adult Tetranychus cinnabarinus (Boisduval) was determined by adopting the potted-seedling spraying method. First, the adult Tetranychus cinnabarinus of uniform size were transferred onto the leaves of kidney bean seedlings at the stage when the first pair of true leaves was fully expanded. After the adult mites had stabilized, the base number was counted. Then, the uniform spraying was performed with the pesticide solution in the order from low to high dose according to the experimental design, with 1.5 mL for each seedling and 3 replicates for each treatment. […]
The treated test materials were placed in an observation room, and the temperature, humidity and illumination of the observation room could be adjusted as needed. […] Then, the co-toxicity coefficient of each ratio was calculated using the Sun Y-P method to evaluate the mixing effect, as in Example 1.

As for `CN(C(=O)c1ccc2c(c1)OC(F)(F)O2)c1cccc(C(=O)Nc2c(Br)cc(C(F)(C(F)(F)F)C(F)(F)F)cc2OC(F)F)c1F` [Compound I-72], the LC50 (as a rule, the concentration that kills 50% of the test population) in assay [1] was 0.227 µg/mL; in assay [2] it was 0.805 µg/mL; in assay [4] it was 1.05 µg/mL; in assay [5], 33.5 µg/mL. In addition, in assay [3], the mortality (usually the percentage killed) at 2 µg/mL was 75.9%.
